SMILES strings stand for the structures. Bounds are passed on as bounds.

This passage reports IC50 results from US7935702B2, “Substituted biaryl quinolin-4-ylamine analogues” (Neurogen Corporation, priority 2004, dated 2011).

T1 sequence (Q8NER1 whole entry): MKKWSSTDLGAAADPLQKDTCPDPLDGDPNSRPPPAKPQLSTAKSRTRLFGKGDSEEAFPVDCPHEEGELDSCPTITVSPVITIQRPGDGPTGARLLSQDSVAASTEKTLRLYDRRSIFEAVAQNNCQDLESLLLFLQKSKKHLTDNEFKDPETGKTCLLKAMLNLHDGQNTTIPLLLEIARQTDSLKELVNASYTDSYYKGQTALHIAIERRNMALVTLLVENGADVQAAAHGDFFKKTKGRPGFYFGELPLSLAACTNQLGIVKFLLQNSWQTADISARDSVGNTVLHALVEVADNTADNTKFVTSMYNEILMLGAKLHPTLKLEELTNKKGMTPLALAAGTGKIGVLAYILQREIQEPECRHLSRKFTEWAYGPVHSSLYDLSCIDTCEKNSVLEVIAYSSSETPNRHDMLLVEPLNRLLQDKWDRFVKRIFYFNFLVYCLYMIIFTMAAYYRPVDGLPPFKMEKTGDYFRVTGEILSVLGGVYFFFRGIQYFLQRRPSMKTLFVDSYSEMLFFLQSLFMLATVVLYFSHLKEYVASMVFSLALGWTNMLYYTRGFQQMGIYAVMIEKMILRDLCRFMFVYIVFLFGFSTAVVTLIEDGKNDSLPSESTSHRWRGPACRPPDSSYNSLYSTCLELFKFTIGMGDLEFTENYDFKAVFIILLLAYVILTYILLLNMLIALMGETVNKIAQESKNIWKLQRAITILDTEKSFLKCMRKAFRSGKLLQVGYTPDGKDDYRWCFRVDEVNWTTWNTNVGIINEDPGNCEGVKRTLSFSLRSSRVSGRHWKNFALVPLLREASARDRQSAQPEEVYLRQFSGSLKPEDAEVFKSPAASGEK

The experiment has as its target T1, human capsaicin receptor (Homo sapiens, UniProt Q8NER1).
T1 construct: expressed in transfected cells
As to the kind of experiment: Calcium mobilization assay, determination of antagonist activity (Example 6). Type of experiment: cell-based. To be noted: Table I; IC50 determined as described in Example 6; read-out: IC50. As for the experimental part: A cDNA encoding full length human capsaicin receptor (SEQ ID NO:1, 2 or 3 of U.S. Pat. No. 6,482,611) is subcloned in the plasmid pBK-CMV (Stratagene, La Jolla, Calif.) for recombinant expression in mammalian cells.
Human embryonic kidney (HEK293) cells are transfected with the pBK-CMV expression construct encoding the full length human capsaicin receptor using standard methods. The transfected cells are selected for two weeks in media containing G418 (400 μg/ml) to obtain a pool of stably transfected cells. Independent clones are isolated from this pool by limiting dilution to obtain clonal stable cell lines for use in subsequent experiments.
This Example illustrates representative calcium mobilization assays for use in evaluating test compounds for agonist and antagonist activity.
Cells transfected with expression plasmids (as described in Example 4) and thereby expressing human capsaicin receptor are seeded and grown to 70-90% confluency in FALCON black-walled, clear-bottomed 96-well plates (#3904, BECTON-DICKINSON, Franklin Lakes, N.J.). The culture medium is emptied from the 96 well plates and FLUO-3 AM calcium sensitive dye (Molecular Probes, Eugene, Oreg.) is added to each well (dye solution: 1 mg FLUO-3 AM, 440 μL DMSO and 440 μl 20% pluronic acid in DMSO, diluted 1:250 in Krebs-Ringer HEPES (KRH) buffer (25 mM HEPES, 5 mM KCl, 0.96 mM NaH2PO4, 1 mM MgSO4, 2 mM CaCl2, 5 mM glucose, 1 mM probenecid, pH 7.4), 50 μl diluted solution per well). Plates are covered with aluminum foil and incubated at 37° C. for 1-2 hours in an environment containing 5% CO2. After the incubation, the dye is emptied from the plates, and the cells are washed once with KRH buffer, and resuspended in KRH buffer.
To measure the ability of a test compound to agonize or antagonize a calcium mobilization response in cells expressing capsaicin receptors to capsaicin or other vanilloid agonist, the EC50 of the agonist capsaicin is first determined. An additional 20 μl of KRH buffer and 1 μl DMSO is added to each well of cells, prepared as described above. 100 μl capsaicin in KRH buffer is automatically transferred by the FLIPR instrument to each well. Capsaicin-induced calcium mobilization is monitored using either FLUOROSKAN ASCENT (Labsystems; Franklin, Mass.) or FLIPR (fluorometric imaging plate reader system; Molecular Devices, Sunnyvale, Calif.) instruments. Data obtained between 30 and 60 seconds after agonist application are used to generate an 8-point concentration response curve, with final capsaicin concentrations of 1 nM to 3 μM. KALEIDAGRAPH software (Synergy Software, Reading, Pa.) is used to fit the data to the equation: y=a*(1/(1+(b/x)^c)) to determine the 50% excitatory concentration (EC50) for the response. In this equation, y is the maximum fluorescence signal, x is the concentration of the agonist or antagonist (in this case, capsaicin), a is the Emax, b corresponds to the EC50 value and c is the Hill coefficient. Determination of Agonist Activity
Test compounds are dissolved in DMSO, diluted in 20 μl KRH buffer so that the final concentration of test compounds in the assay well is between 1 μM and 5 μM, and added to cells prepared as described above. The 96 well plates containing prepared cells and test compounds are incubated in the dark, at room temperature for 0.5 to 6 hours. It is important that the incubation not continue beyond 6 hours. Just prior to determining the fluorescence response, 100 μl capsaicin in KRH buffer at twice the EC50 concentration determined as described above is automatically added by the FLIPR instrument to each well of the 96 well plate for a final sample volume of 200 μl and a final capsaicin concentration equal to the EC50. The final concentration of test compounds in the assay wells is between 1 μM and 5 μM. […]
As to `N#Cc1cnc(-c2cnc3c(Nc4ccc(C(F)(F)F)cn4)ccnc3n2)c(C(F)(F)F)c1` [compound 32, 5-Trifluoromethyl-6-[8-(5-trifluoromethyl-pyridin-2-ylamino)-pyrido[2,3-b]pyrazin-3-yl]-nicotinonitrile], the IC50 was under 1000 nM.

On to `O=C(O)c1cnc(-c2cnc3c(Nc4ccc(C(F)(F)F)cn4)ccnc3n2)c(C(F)(F)F)c1` [compound 33, 5-(trifluoromethyl)-6-(8-{[5-(trifluoromethyl)-2-pyridinyl]amino}pyrido[2,3-b]pyrazin-3-yl)nicotinic acid], for which the IC50 is under 1000 nM.

For `NC(=O)c1cnc(-c2cnc3c(Nc4cnc(C(F)(F)F)cn4)ccnc3n2)c(C(F)(F)F)c1` [compound 34, 5-(trifluoromethyl)-6-(8-{[5-(trifluoromethyl)pyrazin-2-yl]amino}pyrido[2,3-b]pyrazin-3-yl)nicotinamide], the IC50 is under 1000 nM.

Take `NC(=O)c1cnc(-c2cnc3c(Nc4cnc5ccccc5n4)ccnc3n2)c(C(F)(F)F)c1` [compound 35, 6-[8-(quinoxalin-2-ylamino)pyrido[2,3-b]pyrazin-3-yl]-5-(trifluoromethyl)nicotinamide]: the IC50 is under 1000 nM.

Regarding `N#Cc1ccc(-c2cnc3c(Nc4ccc(C(F)(F)F)cn4)ccnc3n2)c(C(F)(F)F)c1` [compound 36, 3-(trifluoromethyl)-4-(8-{[5-(trifluoromethyl)pyridin-2-yl]amino}pyrido[2,3-b]pyrazin-3-yl)benzonitrile], the half-inhibitory concentration (IC50) is under 1000 nM.

In the case of `NC(=O)c1ccc(-c2cnc3c(Nc4ccc(C(F)(F)F)cn4)ccnc3n2)c(C(F)(F)F)c1` [compound 37, 3-(trifluoromethyl)-4-(8-{[5-(trifluoromethyl)pyridin-2-yl]amino}pyrido[2,3-b]pyrazin-3-yl)benzamide], the IC50 is under 1000 nM.

Regarding `O=C(O)c1ccc(-c2cnc3c(Nc4ccc(C(F)(F)F)cn4)ccnc3n2)c(C(F)(F)F)c1` [compound 38, 3-(trifluoromethyl)-4-(8-{[5-(trifluoromethyl)pyridin-2-yl]amino}pyrido[2,3-b]pyrazin-3-yl)benzoic acid], the IC50 was under 1000 nM.

Turning to `CS(=O)(=O)c1ccc(-c2cnc3c(Nc4ccc(C(F)(F)F)cn4)ccnc3n2)c(C(F)(F)F)c1` [compound 41, 3-[4-(methylsulfonyl)-2-(trifluoromethyl)phenyl]-N-[5-(trifluoromethyl)pyridin-2-yl]pyrido[2,3-b]pyrazin-8-amine], the IC50 was under 1000 nM.

In the case of `CCOc1nc(Nc2ccnc3nc(-c4ccc(C#N)cc4C(F)(F)F)cnc23)ccc1C(F)(F)F` [compound 42, 4-(8-{[6-ethoxy-5-(trifluoromethyl)pyridin-2-yl]amino}pyrido[2,3-b]pyrazin-3-yl)-3-(trifluoromethyl)benzonitrile], the IC50 is under 1000 nM.

Consider `CCOc1nc(Nc2ccnc3nc(-c4ccc(C(N)=O)cc4C(F)(F)F)cnc23)ccc1C(F)(F)F` [compound 43, 4-(8-{[6-ethoxy-5-(trifluoromethyl)pyridin-2-yl]amino}pyrido[2,3-b]pyrazin-3-yl)-3-(trifluoromethyl)benzamide], for which the half-inhibitory concentration (IC50) was under 1000 nM.

With `CCOc1nc(Nc2ccnc3nc(-c4ccc(C(=O)O)cc4C(F)(F)F)cnc23)ccc1C(F)(F)F` [compound 44, 4-(8-{[6-ethoxy-5-(trifluoromethyl)pyridin-2-yl]amino}pyrido[2,3-b]pyrazin-3-yl)-3-(trifluoromethyl)benzoic acid], the IC50 is under 1000 nM.

Take `CCOc1nc(Nc2ccnc3nc(-c4ncc(C(N)=O)cc4C(F)(F)F)cnc23)ccc1C(F)(F)F` [compound 48, 6-(8-{[6-ethoxy-5-(trifluoromethyl)pyridin-2-yl]amino}pyrido[2,3-b]pyrazin-3-yl)-5-(trifluoromethyl)nicotinamide]: the IC50 was under 1000 nM.

As to `FC(F)(F)c1ccc(Nc2ccnc3nc(-c4nnc(NCCN5CCCCC5)cc4C(F)(F)F)cnc23)nc1` [compound 53, 3-{6-[(2-piperidin-1-ylethyl)amino]-4-(trifluoromethyl)pyridazin-3-yl}-N-[5-(trifluoromethyl)-pyridin-2-yl]pyrido[2,3-b]pyrazin-8-amine], the IC50 was under 1000 nM.

Take `CC(C)N(CCNc1cc(C(F)(F)F)c(-c2cnc3c(Nc4ccc(C(F)(F)F)cn4)ccnc3n2)nn1)C(C)C` [compound 66, N,N-diisopropyl-N′-[5-(trifluoromethyl)-6-(8-{[5-(trifluoromethyl)pyridin-2-yl]amino}pyrido[2,3-b]pyrazin-3-yl)pyridazin-3-yl]ethane-1,2-diamine]: the IC50 was under 1000 nM.

In the case of `CCN(CC)CCCCNc1cc(C(F)(F)F)c(-c2cnc3c(Nc4ccc(C(F)(F)F)cn4)ccnc3n2)nn1` [compound 69, N,N-diethyl-N′-[5-(trifluoromethyl)-6-(8-{[5-(trifluoromethyl)pyridin-2-yl]amino}pyrido[2,3-b]pyrazin-3-yl)pyridazin-3-yl]butane-1,4-diamine], the IC50 is under 1000 nM.

As for `CCCCN(C)CCNc1cc(C(F)(F)F)c(-c2cnc3c(Nc4ccc(C(F)(F)F)cn4)ccnc3n2)nn1` [compound 70, N-butyl-N-methyl-N′-[5-(trifluoromethyl)-6-(8-{[5-(trifluoromethyl)pyridin-2-yl]amino}pyrido[2,3-b]pyrazin-3-yl)pyridazin-3-yl]ethane-1,2-diamine], the IC50 was under 1000 nM.

On to `CC(C)N1CCN(c2cc(C(F)(F)F)c(-c3cnc4c(Nc5ccc(C(F)(F)F)cn5)ccnc4n3)nn2)CC1` [compound 75, 3-[6-(4-isopropylpiperazin-1-yl)-4-(trifluoromethyl)-pyridazin-3-yl]-N-[5-(trifluoromethyl)pyridin-2-yl]pyrido[2,3-b]pyrazin-8-amine], for which the IC50 was under 1000 nM.

With `CCN(CC)C1CCN(c2cc(C(F)(F)F)c(-c3cnc4c(Nc5ccc(C(F)(F)F)cn5)ccnc4n3)nn2)CC1` [compound 80], the IC50 is under 1000 nM.

`CCCN(CCC)C1CCN(c2cc(C(F)(F)F)c(-c3cnc4c(Nc5ccc(C(F)(F)F)cn5)ccnc4n3)nn2)CC1` [compound 81, 3-{6-[4-(dipropylamino)-piperidin-1-yl]-4-(trifluoro-methyl)pyridazin-3-yl}-N-[5-(trifluoromethyl)pyridin-2-yl]pyrido[2,3-b]pyrazin-8-amine]: the IC50 was under 1000 nM.

Consider `CCCN(CC1CC1)C1CCN(c2cc(C(F)(F)F)c(-c3cnc4c(Nc5ccc(C(F)(F)F)cn5)ccnc4n3)nn2)CC1` [compound 87, 3-[6-{4-[(cyclopropylmethyl)-(propyl)amino]piperidin-1-yl}-4-(trifluoromethyl)-pyridazin-3-yl]-N-[5-(trifluoromethyl)pyridin-2-yl]-pyrido[2,3-b]pyrazin-8-amine], for which the IC50 was under 1000 nM.

On to `CN(C)CCCN(C)c1cc(C(F)(F)F)c(-c2cnc3c(Nc4ccc(C(F)(F)F)cn4)ccnc3n2)nn1` [compound 88, N,N,N′-trimethyl-N′-[5-(trifluoromethyl)-6-(8-{[5-(trifluoromethyl)pyridin-2-yl]amino}pyrido[2,3-b]pyrazin-3-yl)pyridazin-3-yl]propane-1,3-diamine], for which the IC50 is under 1000 nM.

As to `CCN(C)CCN(CC)c1cc(C(F)(F)F)c(-c2cnc3c(Nc4ccc(C(F)(F)F)cn4)ccnc3n2)nn1` [compound 91, N,N′-diethyl-N-methyl-N′-[5-(trifluoromethyl)-6-(8-{[5-(trifluoromethyl)pyridin-2-yl]amino}pyrido[2,3-b]pyrazin-3-yl)pyridazin-3-yl]ethane-1,2-diamine], the IC50 was under 1000 nM.
